{
  "source": "patent US6214563A",
  "about": "“Photon reducing agents for reducing undesired light emission in assays” (Aurora Biosciences Corporation, priority 1998, dated 2001)",
  "key": {"[1]": {"assay": "Effect of 50% methanol on coumarin fluorescence and phenol red absorbance (Example 2)", "type": "physicochemical", "procedure": "To further investigate the ability of a photon reducing agent to reduce fluorescence of a solution, fluorescence of a dye in the presence of a photon reducing agent was monitored in the presence and absence of methanol.\nThe fluorescence from a fluorophore in the presence of a photon reducing agent (phenol red) was determined in both aqueous buffer and aqueous buffer containing 50% (vol/vol) methanol. A 10 μM solution of 6-chloro-7-hydroxy coumarin-3-carboxylate was prepared in 39 mM phosphate buffer pH 7.5 and in a 1:1 mixture of same phosphate buffer and methanol. 1% (vol/vol) of a 100 mM aqueous Phenol Red stock solution was added to the solutions."}, "arthritis": {"system": "arthritis", "settings": "in vivo; cited from earlier work"}, "T-cells": {"system": "T-cells", "settings": "cited from earlier work"}, "[2]": {"assay": "Front face solution fluorescence of coumarin with and without phenol red (Example 1)", "settings": "1 mM phenol red; 0.5 μM coumarin; 50% methanol/phosphate buffer pH 7.5", "procedure": "To investigate the ability of a photon reducing agent to reduce fluorescence of a solution, emission of a fluorophore from a sample was monitored in the presence and absence of a photon reducing agent.\nFluorescence from a solution of a blue fluorescent dye, 6-chloro-7-hydroxy coumarin 3-carboxylate, was determined in the presence and absence of a 1 mM phenol red as the photon reducing agent. A solution of 0.5 μM 6-chloro-7-hydroxy coumarin-3-carboxylate in solvent containing 50% (vol/vol) aqueous 39 mM phosphate buffer pH 7.5 and 50% (vol/vol) methanol was prepared. After taking a front face fluorescence spectrum of this solution on a Spex Fluorolog 2, 1% (vol/vol) of a 100 mM aqueous Phenol Red stock solution was added and another spectrum taken. Front face fluorescence refers to exciting the sample at a right angle to the sample surface and collecting emitted light (for example, from the excited region or emission region) at 12.5 degrees from such angle of excitation."}, "[3]": {"assay": "Coumarin fluorescence as a function of path length (Example 6)", "settings": "10 μM coumarin + 1 mM phenol red; FIG. 10A", "procedure": "To further investigate the ability of photon reducing agents to reduce fluorescence emitted from a solution, fluorescence emitted from a solution containing a fluorophore in the presence of a photon reducing agent was monitored as a function sample thickness.\nA photon reducing agent, phenol red, was tested with a fluorophore, coumarin, as a function of sample thickness (path length). The experiment was conducted using a microscope equipped with epifluorescence. The liquid samples were drawn into low fluorescence capillary tubes of fixed path length (Vitro Dynamics, Rockaway N.J.) as indicated in the graphs. The following samples were evaluated:\nThe samples were excited using a 405/20 filter via a 425 dichroic reflector through a 20× objective (Zeiss 20× Fluar). Emitted light was filtered through a 460/50 filter and detected by an intensified CCD camera (Stanford Photonics, Menlo Park, Calif.). The detector output was converted to a 512×512 pixel eight-bit digital image. The data reflect the average intensity within a 20×20 pixel area within the capillary. The background intensity of the field was subtracted from all values."}, "[4]": {"assay": "Absorption maxima of dyes (Table 1)", "type": "physicochemical", "settings": "value printed in parentheses"}, "[5]": {"assay": "Residual coumarin fluorescence with non-dye quenchers and particulates (Example 3)", "settings": "ex. 395 nm, em. 460 nm; pH 7.5"}},
  "data": [
    {"compound": "O=C(O)c1cc2cc(Cl)c(O)cc2oc1=O", "note": "[6-chloro-7-hydroxy coumarin-3-carboxylate]", "values": [
      {"measurement": "increase of fluorescence in 50% methanol buffer", "setting": "[1]; absence of a photon reducing agent", "result": "about 30%"}
    ]},
    {"compound": "C[C@]12CCC(=O)C=C1CC[C@@H]1[C@@H]2[C@@H](O)C[C@@]2(C)[C@H]1CC[C@]2(O)C(=O)CO", "note": "[Hydrocortisone]", "values": [
      {"measurement": "efficacy in rabbit knee arthritis model", "setting": "arthritis", "result": "efficacious in this model"}
    ]},
    {"compound": "cyclosporin A", "values": [
      {"measurement": "prevention of T-cell proliferation in vitro", "setting": "T-cells", "result": "prevent proliferation of T-cells in vitro"}
    ]},
    {"compound": "O=S1(=O)OC(c2ccc(O)cc2)(c2ccc(O)cc2)c2ccccc21", "note": "[phenol red]", "values": [
      {"measurement": "decrease of absorbance at the emission wavelength of the coumarin in 50% methanol buffer", "setting": "[1]; 50% methanol buffer", "result": "about 20%"},
      {"measurement": "reduction of front face fluorescence", "setting": "[2]", "result": 70, "unit": "fold"},
      {"measurement": "attenuation of coumarin fluorescence", "setting": "[3]", "result": "significantly attenuated"},
      {"measurement": "absorption maximum, value in parentheses", "setting": "[4]", "result": 423, "unit": "nm"}
    ]},
    {"compound": "NCCN(CCN)CCN", "note": "[tris (2-aminoethyl) amine]", "values": [
      {"measurement": "concentration required (collisional quenchers)", "setting": "[5]", "result": "higher than 100 mM"}
    ]}
  ]
}
